According to ChEMBL document CHEMBL5727392, “2,4-disubstituted pyrimidines as CDK inhibitors” (2019):

Molecular target: Cyclin-dependent kinase 4 (Homo sapiens, UniProt P11802)
Assay: Caliper Mobility Shift Assay: CDK4: The test compound was dissolved in DMSO and diluted with a kinase buffer solution (20 mM HEPES-pH 7.5, 0.01% Triton X-100, 10 mM MgCl2, 2 mM DTT) and 5 μL of compound at 5-fold final concentration of reaction dissolved in 10% DMSO was added in a 384-well plate. The compound-free control well was 5 μL of 10% DMSO, and the no-activity control well was 5 μL of kinase buffer. 10 μL of a 2.5-fold diluted CDK4 enzyme solution (GST-CDK4(1-303 end)) was added and incubated at room temperature for 10 min, and then 10 μL of the 2.5-fold diluted substrate solution Peptide FAM-P8 was added. The reaction was stopped by adding 25 μL of stop solution after incubation at 28° C. for 3 h, and the conversion rate data was read on a Caliper EZ Reader II (Caliper Life Sciences) and the conversion rate was converted to inhibition rate data according to above method.

Sequence of Cyclin-dependent kinase 4 (P11802 whole entry): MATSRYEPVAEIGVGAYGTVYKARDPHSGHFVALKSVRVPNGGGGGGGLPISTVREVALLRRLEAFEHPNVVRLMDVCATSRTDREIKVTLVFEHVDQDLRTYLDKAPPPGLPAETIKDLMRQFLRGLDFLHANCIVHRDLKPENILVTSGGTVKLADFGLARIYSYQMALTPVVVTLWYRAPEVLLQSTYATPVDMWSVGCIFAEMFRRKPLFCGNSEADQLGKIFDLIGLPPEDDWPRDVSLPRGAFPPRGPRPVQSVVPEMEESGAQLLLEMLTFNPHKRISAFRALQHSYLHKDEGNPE

| SMILES | IC50 [nM] |
| --- | --- |
| CC(C)c1c2ccc(-c3nc(Nc4ccc(N5CCNCC5)cn4)ncc3F)c(Cl)c2nn1C | < 20 |
| CC(C)c1c(C#N)n(C2CC2)c2ccc(-c3nc(Nc4ccc(CN5CCN(C6CC6)CC5)cn4)ncc3F)cc12 | < 20 |
